# In the supplement of paper PMC5908809:
# Columns and labels:
# Test in all cases: relative IC50 (inflection point of fitted viability curve, relative to fitted max inhibition); higher = less sensitive
# Conditions in all cases: 72 h
# [1] = system: SNK-6 (IL-2 2.5 ng/mL)
# Method: (§1)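 Drug sensitivity and resistance testing: 5 concentrations over a 10,000-fold range, 72 h at 37 °C, viability by CellTiter-Glo normalised to DMSO and benzethonium chloride controls. IC50 is the inflection point of a logistic fit (min fixed at 0, max fitted), so it is relative to the fitted maximal inhibition. Kept only where fitted max inhibition is at least 50%.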
# [2] = system: KAI3 (IL-2 2.5 ng/mL)
# Method: as §1
# [3] = system: NK-92 (IL-2 2.5 ng/mL)
# Method: as §1
# [4] = system: DERL-7 (IL-2 2.5 ng/mL)
# Method: as §1
# [5] = system: NKL (IL-2 2.5 ng/mL)
# Method: as §1
# [6] = system: IMC-1 (IL-2 20 ng/mL)
# Method: as §1
# [7] = system: normal primary NK cells, pool 1 (3 donors), resting (IL-2 0 ng/mL)
# Method: as §1
# [8] = system: normal primary NK cells, pool 2 (3 donors) (IL-2 2.5 ng/mL)
# Method: as §1
# [9] = system: normal primary NK cells, pool 3 (3 donors) (IL-2 2.5 ng/mL)
# Method: as §1
# [10] = system: NK-YS (IL-2 2.5 ng/mL)
# Method: as §1
# [11] = system: KHYG-1 (IL-2 2.5 ng/mL)
# Method: as §1
# [12] = system: YT (IL-2 2.5 ng/mL)
# Method: as §1
SMILES,relative IC50 [1],relative IC50 [2],relative IC50 [3],relative IC50 [4],relative IC50 [5],relative IC50 [6],relative IC50 [7],relative IC50 [8],relative IC50 [9],relative IC50 [10],relative IC50 [11],relative IC50 [12]
Nc1cc(F)ccc1NC(=O)/C=C/c1cnn(C/C=C/c2ccccc2)c1 [RGFP966],1.46 µM,1.94 µM,1.68 µM,1.53 µM,1.35 µM,,,,,,,
Cn1nnc2c(C(N)=O)ncn2c1=O [Temozolomide],1.61 µM,,,,25.7 µM,15.8 µM,> 100 µM,,,,,
c1cc(CN2CCCNCCNCCCNCC2)ccc1CN1CCCNCCNCCCNCC1 [Plerixafor],,,,,,,,> 10 µM,> 10 µM,,,
O=C(c1cc(Cc2n[nH]c(=O)c3ccccc23)ccc1F)N1CCN(C(=O)C2CC2)CC1 [Olaparib],1.67 µM,1.26 µM,1.56 µM,,0.237 µM,1.61 µM,,,,1.62 µM,2.02 µM,
O=C(NOC[C@H](O)CO)c1ccc(F)c(F)c1Nc1ccc(I)cc1F,,,> 1 µM,0.01 µM,0.0199 µM,,,,> 1 µM,,0.0316 µM,
CN(C)/N=N/c1[nH]cnc1C(N)=O [Dacarbazine],,,> 10 µM,> 10 µM,,,> 10 µM,> 10 µM,,,,2.97 µM
c1ccc([C@H]2CN3CCSC3=N2)cc1 [Levamisole],,> 10 µM,> 10 µM,,,,,> 10 µM,> 10 µM,> 10 µM,> 10 µM,> 10 µM
COc1ccc(-c2ccc3c(N4CCOC[C@@H]4C)nc(N4CCOC[C@@H]4C)nc3n2)cc1CO [AZD8055],0.0163 µM,0.0103 µM,0.121 µM,0.0217 µM,0.00508 µM,,,,,0.0773 µM,0.135 µM,0.0556 µM
CC[C@H](CO)Nc1nc(NCc2ccccc2)c2ncn(C(C)C)c2n1 [Seliciclib],,2.38 µM,,,,,,,,,,1.85 µM
Nc1nc(NC2CC2)cc(-c2cccc(Cl)c2Cl)n1 [TH588],0.809 µM,1.73 µM,1.55 µM,7.9 µM,2.18 µM,6.38 µM,,,,0.854 µM,2.05 µM,2.12 µM
C#Cc1cccc(Nc2ncnc3cc(OCCOC)c(OCCOC)cc23)c1 [Erlotinib],,1.3 µM,,,,,3.36 µM,,,,,
Nc1cccc2c1C(=O)N(C1CCC(=O)NC1=O)C2=O (stereo not drawn) [Pomalidomide],,> 10 µM,> 10 µM,,,> 10 µM,> 10 µM,,,> 10 µM,> 10 µM,> 10 µM
COc1ccc(COc2cc3oc(=O)c4cc(C(C)O)ccc4c3cc2OC)cc1 (stereo not drawn) [Palomid-529],,,1.28 µM,,,,,,,,1.96 µM,
COc1cc2c(N3CCN(C(=O)Nc4ccc(OC(C)C)cc4)CC3)ncnc2cc1OCCCN1CCCCC1 [Tandutinib],,,,,,,,,> 1 µM,,,
Clc1ccccc1C(c1ccccc1)(c1ccccc1)n1cccn1 [TRAM-34],,,,,,,> 1 µM,,,,,
CCc1cc(Nc2nccc(-c3c(-c4ccc(OC)c(C(=O)Nc5c(F)cccc5F)c4)nc4ccccn34)n2)c(OC)cc1N1CCC(N2CCN(S(C)(=O)=O)CC2)CC1,> 10 µM,,,,> 10 µM,> 10 µM,,,,,> 10 µM,
COc1cc2nccc(Oc3ccc(NC(=O)NC4CC4)c(Cl)c3)c2cc1C(N)=O [Lenvatinib],> 2.5 µM,,,,,,,> 2.5 µM,,,,
